Source: US20260184689A1, “PIPERIDINE-SUBSTITUTED BENZOIC ACID COMPOUND, AND PHARMACEUTICAL COMPOSITION AND USE THEREOF” (SHANGHAI YISHENG BIOPHARMACEUTICAL COMPANY LIMITED, priority 2022, published 2026)

Legend:
[1] = molecular target: T1, Complement factor B (Homo sapiens, UniProt P00751); test: Optical surface plasmon resonance (SPR) binding affinity assay
Target sequence in this assay (P00751 26-764): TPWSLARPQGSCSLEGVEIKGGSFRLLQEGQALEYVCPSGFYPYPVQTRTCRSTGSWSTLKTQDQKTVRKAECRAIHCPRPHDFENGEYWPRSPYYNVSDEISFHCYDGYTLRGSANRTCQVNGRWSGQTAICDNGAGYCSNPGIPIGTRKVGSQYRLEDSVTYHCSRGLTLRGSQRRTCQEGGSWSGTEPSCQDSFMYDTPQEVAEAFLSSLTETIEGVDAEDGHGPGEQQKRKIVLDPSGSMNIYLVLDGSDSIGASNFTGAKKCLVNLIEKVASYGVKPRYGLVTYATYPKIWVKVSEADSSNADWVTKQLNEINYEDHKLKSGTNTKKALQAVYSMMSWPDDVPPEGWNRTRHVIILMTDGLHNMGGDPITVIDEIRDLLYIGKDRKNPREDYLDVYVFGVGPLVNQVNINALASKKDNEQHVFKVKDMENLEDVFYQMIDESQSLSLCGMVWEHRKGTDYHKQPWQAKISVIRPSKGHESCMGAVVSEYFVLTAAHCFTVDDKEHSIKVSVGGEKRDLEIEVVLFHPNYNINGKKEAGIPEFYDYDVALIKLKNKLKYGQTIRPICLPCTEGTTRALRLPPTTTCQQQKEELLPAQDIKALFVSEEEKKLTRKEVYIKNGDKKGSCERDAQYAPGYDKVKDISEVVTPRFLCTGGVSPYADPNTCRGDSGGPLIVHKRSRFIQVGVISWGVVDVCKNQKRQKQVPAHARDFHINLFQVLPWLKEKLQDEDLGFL
Method: The SPR experiment was conducted at 25° C. using PBS buffer supplemented with 0.05% (v/v) P20 and 5% DMSO as the running buffer. The Biacore 8K instrument from GE Healthcare was employed for analysis. The CM3 chip (GE Healthcare) was activated with 400 mM EDC and 100 mM NHS at a flow rate of 30 μL/min for 420 s.

[2] = molecular target: T1, Complement factor B; test: Human complement factor B ELISA assay (CVF-Bb, complement C3 protein); assay type: biochemical; parameters: followed by the addition of 0.2 μL of CVF-Bb (0.1 μmol/mL); conditions: CVF-Bb incubated with compound 1 hour, then complement C3 protein 37° C. 2 hours, OD 450 nm
Method: The mixture was incubated at room temperature for 1 hour;
Then, 9 μL of the successfully incubated samples were taken and added to the wells of the 96T plate, followed by the addition of 1 μL complement C3 protein, and the reaction was carried out at a constant temperature of 37° C. for 2 hours;
The 9 μL of the aforementioned sample-free liquid was mixed with 1 μL of complement C3 protein as the negative control; • 10 μL of the successfully incubated sample was taken, and the inhibitory concentration was determined by ELISA. The OD value at 450 nm was measured, and a curve was plotted. The obtained data were analyzed using GraphPad Prism 7.0 software, and a Log concentration-inhibition rate curve was generated using a nonlinear regression model to calculate the IC50 value.
Target sequence in this assay (P00751 260-764 limits assumed): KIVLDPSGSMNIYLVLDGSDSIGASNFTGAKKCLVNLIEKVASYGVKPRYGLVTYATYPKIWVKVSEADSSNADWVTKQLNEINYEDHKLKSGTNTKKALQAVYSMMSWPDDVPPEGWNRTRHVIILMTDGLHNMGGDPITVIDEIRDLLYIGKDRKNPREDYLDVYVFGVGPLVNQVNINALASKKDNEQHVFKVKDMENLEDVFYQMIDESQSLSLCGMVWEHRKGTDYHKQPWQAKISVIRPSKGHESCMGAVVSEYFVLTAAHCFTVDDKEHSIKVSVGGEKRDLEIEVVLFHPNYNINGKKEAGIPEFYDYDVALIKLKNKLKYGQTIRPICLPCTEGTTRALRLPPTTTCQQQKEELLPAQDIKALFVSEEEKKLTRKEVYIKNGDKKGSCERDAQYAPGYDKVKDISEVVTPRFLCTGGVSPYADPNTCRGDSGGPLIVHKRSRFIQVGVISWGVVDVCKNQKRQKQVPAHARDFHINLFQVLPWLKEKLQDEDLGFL
Target sequence in this assay (Q91132 23-649 partner limits assumed): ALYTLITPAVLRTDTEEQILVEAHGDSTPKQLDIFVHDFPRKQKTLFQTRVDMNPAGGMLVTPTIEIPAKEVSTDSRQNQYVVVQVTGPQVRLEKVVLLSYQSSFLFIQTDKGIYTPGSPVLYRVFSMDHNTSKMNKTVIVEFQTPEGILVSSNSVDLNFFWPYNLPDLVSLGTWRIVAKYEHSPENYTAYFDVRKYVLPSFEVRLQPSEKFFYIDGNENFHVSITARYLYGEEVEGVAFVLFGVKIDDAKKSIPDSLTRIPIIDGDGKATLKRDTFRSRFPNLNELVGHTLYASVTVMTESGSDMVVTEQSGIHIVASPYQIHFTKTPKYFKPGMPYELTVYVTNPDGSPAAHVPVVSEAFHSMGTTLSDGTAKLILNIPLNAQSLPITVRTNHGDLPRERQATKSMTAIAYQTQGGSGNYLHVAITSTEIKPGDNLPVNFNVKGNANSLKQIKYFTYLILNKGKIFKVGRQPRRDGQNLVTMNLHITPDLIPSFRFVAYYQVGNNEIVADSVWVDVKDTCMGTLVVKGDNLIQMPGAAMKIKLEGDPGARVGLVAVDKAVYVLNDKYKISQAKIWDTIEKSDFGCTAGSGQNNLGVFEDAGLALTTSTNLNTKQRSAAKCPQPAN
Target sequence in this assay (Q91132 733-984 partner limits assumed): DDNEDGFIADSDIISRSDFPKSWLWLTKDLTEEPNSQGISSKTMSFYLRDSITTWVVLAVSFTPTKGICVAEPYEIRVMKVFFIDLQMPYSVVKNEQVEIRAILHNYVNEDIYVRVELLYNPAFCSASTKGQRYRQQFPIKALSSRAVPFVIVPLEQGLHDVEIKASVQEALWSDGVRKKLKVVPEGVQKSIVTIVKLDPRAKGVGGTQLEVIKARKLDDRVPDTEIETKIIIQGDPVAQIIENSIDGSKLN
Target sequence in this assay (Q91132 1264-1642 partner limits assumed): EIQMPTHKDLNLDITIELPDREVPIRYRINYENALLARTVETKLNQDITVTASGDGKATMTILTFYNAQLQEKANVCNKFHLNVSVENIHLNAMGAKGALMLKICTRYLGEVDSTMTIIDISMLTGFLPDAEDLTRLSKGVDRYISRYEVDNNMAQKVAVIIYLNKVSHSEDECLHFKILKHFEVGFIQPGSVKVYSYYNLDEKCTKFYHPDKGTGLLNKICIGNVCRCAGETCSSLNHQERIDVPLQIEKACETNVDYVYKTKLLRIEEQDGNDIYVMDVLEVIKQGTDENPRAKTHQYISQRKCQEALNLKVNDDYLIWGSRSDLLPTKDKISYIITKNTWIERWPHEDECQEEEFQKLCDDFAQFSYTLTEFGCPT

[3] = system: PNH-like erythrocytes; test: Alternative pathway inhibition assay of PNH-like erythrocyte; assay type: cell-based; conditions: 1 h, AET/anti-CD55 sensitized human erythrocytes, acidified normal human serum pH 6.4, 37° C. 60 min
Text: Principle: PNH, as an indication for complement inhibitors, was typically tested using the Ham test, which states that acidified serum was capable of activating the alternative pathway, leading to hemolysis of PNH erythrocytes, while normal erythrocytes remained unaffected. It was reported in the literature that AET could disrupt the complement regulatory proteins on the surface of normal human erythrocytes, resulting in PNH-like erythrocytes.
Reagents and instrument: PBS buffer, normal human serum (NHS), Alsever's solution, microplate reader, MgCl2, EGTA, EDTA, HCl, normal human erythrocytes, AET; anti-CD-55 antibody (BRIC216; Sigma)
PBS buffer: Potassium dihydrogen phosphate (KH2PO4): 0.24 g/L, disodium hydrogen phosphate (Na2HPO4): 1.44 g/L, sodium chloride (NaCl): 8 g/L, potassium chloride (KCl): 0.2 g/L, pH 7.4
PBSE buffer: PBS, 10 mM EDTA; pH 7.4
PBSMg buffer: PBS, 1 mM Mg++; pH 6.4
10× Mg-EGTA stock solution: 25 mM MgCl2, 80 mM EGTA; pH 6.4
10× EDTA stock solution: 100 mM EDTA; pH 6.4
Method: The inhibition of alternative pathway-mediated erythrocyte lysis was evaluated using an in vitro model of PNH. Normal human erythrocytes were sensitized with 2-aminoethylisothiouronium bromide (AET) to inactivate complement regulatory proteins on the cell surface and induce a PNH-like phenotype.
2 mL of normal human erythrocytes were mixed with 2 mL of Alsever's solution, washed three times with PBS, and centrifuged at 2500×g, with the upper 10% of the erythrocytes being removed each time. The washed 1 mL erythrocytes were sensitized by incubation with 4 mL of 8% w/v AET (pH 8.0) at 37° C. for 10 min, followed by three additional washes with PBS. Subsequently, the concentration of erythrocytes in PBS (erythrocyte stock solution) was adjusted with PBS such that an absorbance of 1.5-2.0 at 412 nm (indicating hemoglobin release) was achieved upon dilution of 10 μL erythrocyte stock solution with 190 μL water.
1.5 mL of the erythrocyte stock solution was mixed with anti-CD55 antibody (BRIC216; Sigma/final concentration of 6.7 μg/mL) and incubated on ice for 30 min. After being washed once with PBS, the treated erythrocytes were resuspended in PBS-Mg to the initial volume of 1.5 mL. The following AP-mediated lysis assay was performed on this erythrocyte preparation with induced PNH phenotype.
The normal human serum was acidified with 0.2 M HCl to pH 6.4, and supplemented with MgCl2 and EGTA to final concentrations of 2.5 and 8 mM, respectively. 80 μL of this serum mixture was mixed with 10 μL of PBS-Mg (negative blank) or 10 μL of samples at various concentrations. Normal human serum was acidified with 0.2 M HCl to pH 6.4, supplemented with EDTA to a final concentration of 10 mM, and 80 μL of this serum mixture was mixed with 10 μL of PBS-Mg (negative blank) as a blank positive control. The sample was incubated with serum on ice for 5 min, and then 10 μL of sensitized erythrocytes were added. The final serum concentration in the reaction mixture was approximately 64% v/v, incubated at 37° C. for 60 min, and the reaction was quenched by adding 50 μL of ice-cold PBS containing 10 mM EDTA. The remaining unlysed cells were centrifuged at 2500×g for 10 min, and 100 μL of the supernatant was transferred to a 96-well plate to measure its absorbance at 412 nm. The amount of hemoglobin released during erythrocyte lysis was thereby quantified. […] represented the relative lysis of PNH-like erythrocytes (expressed in %; set to 0% for the PC sample and 100% for the NC sample). The absorbance was measured using a microplate reader (Molecular Devices SpectraMax 3X). The IC50 value was calculated by applying nonlinear regression with GraphPad Prism 9.0 software from the percentage of hemolysis as a function of the test compound concentration.

Work on `COc1cc(C)c2[nH]ccc2c1C(=O)N1CC[C@H](OC2CCC2)C[C@H]1c1ccc(C(=O)O)cc1` [Final product of Example 157, 4-((2S,4S)-4-Cyclobutoxy-1-(5-methoxy-7-methyl-1H-indole-4-carbonyl)piperidin-2-yl)benzoic acid] yielded a Kd [1] of 0.01 to 0.03 µM, an IC50 [2] of 0.4 to 0.45 µM and an IC50 [3] of 4 to 4.5 µM.

Work on `CCO[C@H]1CCN(Cc2c(OC)cc(C)c3[nH]ccc23)[C@H](c2ccc(C(=O)O)cc2)C1` [LNP023, reference compound] yielded an IC50 [3] of 0.224 µM.

`COc1cc(C)c2[nH]ccc2c1C(=O)N1CC[C@H](OCC2CC2)C[C@H]1c1ccc(C(=O)O)cc1` [Compound 9 of Example 71, 4-((2S,4S)-4-(Cyclopropylmethoxy)-1-(5-methoxy-7-methyl-1H-indole-4-carbonyl)piperidin-2-yl)benzoic acid] was tested, and the Kd [1] was 0.01 to 0.03 µM and the IC50 [3] was 6 to 6.5 µM.

With `COc1cc(C)c2[nH]ccc2c1C(=O)N1CCC(O)(C2CCC2)C[C@H]1c1ccc(C(=O)O)cc1` (mixture of isomers) [Final product of Example 154, 4-((2S)-4-Cyclobutyl-4-hydroxy-1-(5-methoxy-7-methyl-1H-indole-4-carbonyl)piperidin-2-yl)benzoic acid] the Kd [1] was 0.01 to 0.03 µM, the IC50 [2] was 0.4 to 0.45 µM and the IC50 [3] was 4 to 4.5 µM.

`CCO[C@H]1CCN(S(=O)(=O)c2c(OC)cc(C)c3[nH]ccc23)[C@H](c2ccc(C(=O)O)cc2)C1` [Compound 51 of Example 144, 4-((2S,4S)-4-Ethoxy-1-((5-methoxy-7-methyl-1H-indol-4-yl)sulfonyl)piperidin-2-yl)benzoic acid] was tested, and the Kd [1] was 0.01 to 0.03 µM, the IC50 [2] was 0.3 to 0.5 µM and the IC50 [3] was 2 to 2.5 µM.

`COc1cc(C)c2[nH]ccc2c1C(=O)N1CCC(O)(C2CC2)C[C@H]1c1ccc(C(=O)O)cc1` (stereo partly drawn) [Final product of Example 155, 4-((2S)-4-Cyclopropyl-4-hydroxy-1-(5-methoxy-7-methyl-1H-indole-4-carbonyl)piperidin-2-yl)benzoic Acid] showed a Kd [1] of 0.01 to 0.03 µM, an IC50 [2] of 0.15 to 0.3 µM and an IC50 [3] of 1 to 1.5 µM.

`COc1cc(C)c2[nH]ccc2c1C(=O)N1CC[C@H](OC)C[C@H]1c1ccc(C(=O)O)cc1` [Final product of Example 156, 4-((2S,4S)-4-Methoxy-1-(5-methoxy-7-methyl-1H-indole-4-carbonyl)piperidin-2-yl)benzoic acid] showed a Kd [1] of 0.01 to 0.03 µM, an IC50 [2] of 0.15 to 0.3 µM and an IC50 [3] of 1 to 1.5 µM.

`CCO[C@H]1CCN(C(=O)c2c(OC)cc(C)c3[nH]ccc23)[C@H](c2ccc(C(=O)O)cc2)C1` [Compound 1 of Example 55, 4-((2S,4S)-4-Ethoxy-1-(5-methoxy-7-methyl-1H-indole-4-carbonyl)piperidin-2-yl)benzoic acid] gave a Kd [1] of 0.01 to 0.03 µM, an IC50 [2] of 0.15 to 0.3 µM and an IC50 [3] of 1 to 1.5 µM.
